Results from patent US10294202B2, “Pyrrolidinones as herbicides” (FMC Corporation, priority 2013, dated 2019).

How the values were obtained:
[1] = test system: sedge, umbrella; assay: Test B flooded paddy test; type: in vivo, Cyperus difformis; settings: 500 g ai/ha, Flood; scale of 0 to 100 where 0 is no effect and 100 is complete control
Procedure, shortened: (§1)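 Scored visually 0–100 (0 no effect, 100 complete control) versus controls after 13 to 15 greenhouse days. Treatment: compound added to paddy water kept 3 cm above soil, on 2-leaf-stage plants.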

[2] = test system: galium; assay: Test A postemergence herbicide test; type: in vivo, Galium aparine; settings: for Plant response rating, Galium: 125 g ai/ha, 0 to 100 scale, 0 no effect, 100 complete control; for Galium plant response rating (0 to 100 scale, 0 is no effect, 100 is complete control): 500 g ai/ha
Procedure, shortened: (§2)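 Plants at the one- to two-leaf stage, 2–10 cm tall, grown in loam/sand pots, received postemergence sprays of the test chemicals. After about 10 days in the greenhouse, injury was scored visually against untreated controls on a 0–100 scale (0 none, 100 complete control).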

[3] = test system: barnyardgrass; assay: Test A pre-/postemergence herbicide test; type: in vivo, Echinochloa crus-galli
Procedure, shortened: (§3)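 Seeds in loam–sand blend received preemergence directed soil spray; separately, plants 2–10 cm at one- to two-leaf stage received postemergence spray, both with test chemicals in non-phytotoxic solvent with surfactant. After ~10 days in greenhouse, injury rated visually against untreated controls, 0 (no effect) to 100 (complete control).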

[4] = test system: ryegrass, Italian; assay: Test A pre-/postemergence herbicide test; type: in vivo, Lolium multiflorum; settings: for Plant response rating, Ryegrass, Italian: 0 to 100 scale
Procedure, shortened: as §3

[5] = test system: pigweed; assay: Test A pre-/postemergence herbicide test; type: in vivo, Amaranthus retroflexus; settings: for Plant response rating, Pigweed: 0 to 100 scale
Procedure, shortened: as §3

[6] = test system: wheat; assay: Test A pre-/postemergence herbicide test; type: in vivo, Triticum aestivum; settings: Postemergence; for Plant response rating, Wheat: 125 g ai/ha, 0 to 100 scale, 0 no effect, 100 complete control; for Wheat plant response rating (0 to 100 scale, 0 is no effect, 100 is complete control): 500 g ai/ha
Procedure, shortened: as §3

[7] = test system: blackgrass; assay: Test A postemergence herbicide test; type: in vivo, Alopecurus myosuroides; settings: for Plant response rating, Blackgrass: 125 g ai/ha, 0 to 100 scale, 0 no effect, 100 complete control; for Blackgrass plant response rating (0 to 100 scale, 0 is no effect, 100 is complete control): 500 g ai/ha
Procedure, shortened: as §2

[8] = test system: rice; assay: Test B flooded paddy test; type: in vivo, Oryza sativa; settings: 500 g ai/ha, Flood; scale of 0 to 100 where 0 is no effect and 100 is complete control
Procedure, shortened: as §1

[9] = test system: ducksalad; assay: Test B flooded paddy test; type: in vivo, Heteranthera limosa; settings: 500 g ai/ha, Flood; scale of 0 to 100 where 0 is no effect and 100 is complete control
Procedure, shortened: as §1

[10] = test system: corn; assay: Test A pre-/postemergence herbicide test; type: in vivo, Zea mays; settings: Postemergence; for Plant response rating, Corn: 125 g ai/ha, 0 to 100 scale, 0 no effect, 100 complete control; for Corn plant response rating (0 to 100 scale, 0 is no effect, 100 is complete control): 500 g ai/ha
Procedure, shortened: as §3

[11] = test system: barnyardgrass; assay: Test B flooded paddy test; type: in vivo, Echinochloa crus-galli; settings: 500 g ai/ha, Flood; scale of 0 to 100 where 0 is no effect and 100 is complete control
Procedure, shortened: as §1

[12] = test system: giant foxtail; assay: Test A pre-/postemergence herbicide test; type: in vivo, Setaria faberii; settings: for Plant response rating, Foxtail, Giant: 0 to 100 scale
Procedure, shortened: as §3

[13] = test system: ragweed; assay: Test A pre-/postemergence herbicide test; type: in vivo, Ambrosia elatior; settings: for Plant response rating, Ragweed: 0 to 100 scale
Procedure, shortened: as §3

[14] = test system: kochia; assay: Test A pre-/postemergence herbicide test; type: in vivo, Kochia scoparia; settings: for Plant response rating, Kochia: 0 to 100 scale
Procedure, shortened: as §3

[15] = 125 g ai/ha, visual rating, 0 to 100 scale, 0 no effect, 100 complete control, approximately 10 days, preemergence
[16] = Postemergence, 125 g ai/ha, 0 to 100 scale, 0 no effect, 100 complete control
[17] = preemergence, 500 g ai/ha, 0 to 100 scale (0 no effect, 100 complete control)
[18] = 125 g ai/ha, visual rating, 0 no effect, 100 complete control, approximately 10 days, preemergence
[19] = Postemergence, 125 g ai/ha, 0 no effect, 100 complete control

| Structure (SMILES) | Plant response rating, Sedge, Umbrella [1] | Plant response rating, Galium [2] | Galium plant response rating (0 to 100 scale, 0 is no effect, 100 is complete control) [2] | Plant response rating, Barnyardgrass [3, 15] | Plant response rating, Barnyardgrass [3, 16] | Barnyardgrass plant response rating (0 to 100 scale, 0 is no effect, 100 is complete control) ([3]; Postemergence, 500 g ai/ha) | Plant response rating, Barnyardgrass [3, 17] | Plant response rating, Ryegrass, Italian [4, 18] | Plant response rating, Ryegrass, Italian [4, 19] | Ryegrass, Italian plant response rating (0 to 100 scale, 0 is no effect, 100 is complete control) ([4]; Postemergence, 500 g ai/ha) | Plant response rating, Ryegrass, Italian ([4]; preemergence, 500 g ai/ha) | Plant response rating, Pigweed [5, 18] | Plant response rating, Pigweed [5, 19] | Pigweed plant response rating (0 to 100 scale, 0 is no effect, 100 is complete control) ([5]; Postemergence, 500 g ai/ha) | Plant response rating, Pigweed ([5]; preemergence, 500 g ai/ha) | Plant response rating, Wheat [6] | Wheat plant response rating (0 to 100 scale, 0 is no effect, 100 is complete control) [6] | Plant response rating, Blackgrass [7] | Blackgrass plant response rating (0 to 100 scale, 0 is no effect, 100 is complete control) [7] | Plant response rating, Rice [8] | also measured |
| --- | --- | --- | --- | --- | --- | --- | --- | --- | --- | --- | --- | --- | --- | --- | --- | --- | --- | --- | --- | --- | --- |
| Cc1cc(C2CNC(=O)C2C(=O)Nc2ccc(F)c(F)c2F)ccc1F (racemic) [Compound 142] | 0 | 0 | 40 | 90 | 80 | 90 | 90 | 0 | 0 | 20 | 0 | 0 | 0 | 0 | 0 | 0 | 20 | 0 | 30 | 0 | Plant response rating, Ducksalad [9]: 100; Plant response rating, Corn [10]: 0; Corn plant response rating (0 to 100 scale, 0 is no effect, 100 is complete control) [10]: 0; Plant response rating, Barnyardgrass [11]: 75; Plant response rating, Foxtail, Giant [12, 18]: 70; Plant response rating, Foxtail, Giant [12, 19]: 0; Foxtail, Giant plant response rating (0 to 100 scale, 0 is no effect, 100 is complete control) ([12]; Postemergence, 500 g ai/ha): 50; Plant response rating, Foxtail, Giant ([12]; preemergence, 500 g ai/ha): 90; Plant response rating, Ragweed [13, 18]: 0; Plant response rating, Ragweed [13, 19]: 0; Ragweed plant response rating (0 to 100 scale, 0 is no effect, 100 is complete control) ([13]; Postemergence, 500 g ai/ha): 0; Plant response rating, Ragweed ([13]; preemergence, 500 g ai/ha): 0; Plant response rating, Kochia [14, 18]: 0; Plant response rating, Kochia [14, 19]: 0; Kochia plant response rating (0 to 100 scale, 0 is no effect, 100 is complete control) ([14]; Postemergence, 500 g ai/ha): 0; Plant response rating, Kochia ([14]; preemergence, 500 g ai/ha): 0 |
| Cc1ccc(C2CNC(=O)C2C(=O)Nc2cccc(F)c2F)cc1F (racemic) [Compound 146] | 0 | 40 | 70 | 90 | 90 | 90 | 90 | 0 | 20 | 60 | 40 | 0 | 0 | 0 | 0 | 0 | 70 | 30 | 70 | 0 | Plant response rating, Ducksalad [9]: 100; Plant response rating, Corn [10]: 0; Corn plant response rating (0 to 100 scale, 0 is no effect, 100 is complete control) [10]: 50; Plant response rating, Barnyardgrass [11]: 80; Plant response rating, Foxtail, Giant [12, 18]: 80; Plant response rating, Foxtail, Giant [12, 19]: 0; Foxtail, Giant plant response rating (0 to 100 scale, 0 is no effect, 100 is complete control) ([12]; Postemergence, 500 g ai/ha): 70; Plant response rating, Foxtail, Giant ([12]; preemergence, 500 g ai/ha): 90; Plant response rating, Ragweed [13, 18]: 0; Plant response rating, Ragweed [13, 19]: 0; Ragweed plant response rating (0 to 100 scale, 0 is no effect, 100 is complete control) ([13]; Postemergence, 500 g ai/ha): 60; Plant response rating, Ragweed ([13]; preemergence, 500 g ai/ha): 30; Plant response rating, Kochia [14, 18]: 0; Plant response rating, Kochia [14, 19]: 0; Kochia plant response rating (0 to 100 scale, 0 is no effect, 100 is complete control) ([14]; Postemergence, 500 g ai/ha): 70; Plant response rating, Kochia ([14]; preemergence, 500 g ai/ha): 30 |
| Cc1ccc(C2CNC(=O)C2C(=O)Nc2ccc(F)c(F)c2F)cc1F (racemic) [Compound 147] | 0 | 50 | 60 | 90 | 90 | 90 | 90 | 0 | 20 | 50 | 40 | 0 | 0 | 10 | 0 | 0 | 40 | 40 | 60 | 0 | Plant response rating, Ducksalad [9]: 100; Plant response rating, Corn [10]: 0; Corn plant response rating (0 to 100 scale, 0 is no effect, 100 is complete control) [10]: 50; Plant response rating, Barnyardgrass [11]: 70; Plant response rating, Foxtail, Giant [12, 18]: 80; Plant response rating, Foxtail, Giant [12, 19]: 40; Foxtail, Giant plant response rating (0 to 100 scale, 0 is no effect, 100 is complete control) ([12]; Postemergence, 500 g ai/ha): 70; Plant response rating, Foxtail, Giant ([12]; preemergence, 500 g ai/ha): 90; Plant response rating, Ragweed [13, 18]: 0; Plant response rating, Ragweed [13, 19]: 0; Ragweed plant response rating (0 to 100 scale, 0 is no effect, 100 is complete control) ([13]; Postemergence, 500 g ai/ha): 50; Plant response rating, Ragweed ([13]; preemergence, 500 g ai/ha): 50; Plant response rating, Kochia [14, 18]: 30; Plant response rating, Kochia [14, 19]: 40; Kochia plant response rating (0 to 100 scale, 0 is no effect, 100 is complete control) ([14]; Postemergence, 500 g ai/ha): 60; Plant response rating, Kochia ([14]; preemergence, 500 g ai/ha): 80 |
| Cc1ccc(C2CNC(=O)C2C(=O)Nc2ccc(F)cc2F)cc1 (racemic) [Compound 150] | 0 | 50 | 60 | 80 | 80 | 80 | 90 | 0 | 0 | 0 | 50 | 0 | 0 | 20 | 0 | 0 | 0 | 0 | 10 | 0 | Plant response rating, Ducksalad [9]: 100; Plant response rating, Corn [10]: 0; Corn plant response rating (0 to 100 scale, 0 is no effect, 100 is complete control) [10]: 30; Plant response rating, Barnyardgrass [11]: 80; Plant response rating, Foxtail, Giant [12, 18]: 70; Plant response rating, Foxtail, Giant [12, 19]: 30; Foxtail, Giant plant response rating (0 to 100 scale, 0 is no effect, 100 is complete control) ([12]; Postemergence, 500 g ai/ha): 70; Plant response rating, Foxtail, Giant ([12]; preemergence, 500 g ai/ha): 90; Plant response rating, Ragweed [13, 18]: 0; Plant response rating, Ragweed [13, 19]: 0; Ragweed plant response rating (0 to 100 scale, 0 is no effect, 100 is complete control) ([13]; Postemergence, 500 g ai/ha): 20; Plant response rating, Ragweed ([13]; preemergence, 500 g ai/ha): 50; Plant response rating, Kochia [14, 18]: 60; Plant response rating, Kochia [14, 19]: 30; Kochia plant response rating (0 to 100 scale, 0 is no effect, 100 is complete control) ([14]; Postemergence, 500 g ai/ha): 60; Plant response rating, Kochia ([14]; preemergence, 500 g ai/ha): 90 |
